Consider 1 molecule from patent publication US9440914B2, “Method for treating glioblastomas and other tumors” (THE FEINSTEIN INSTITUTE FOR MEDICAL RESEARCH, priority 2013, dated 2016).

The test system of assay [1] is GL261 murine glioblastoma cells co-cultured with microglia. Briefly: 3-dimensional microglia-glioblastoma co-culture transwell invasion assay (microglia-stimulated GL261 invasion). The assay is classed as cell-based. The settings on record: 3:1 glioblastoma cells to microglia, BME, no serum, 48 h; read-out: IC50 for interference with microglia-stimulated GL261 invasion. The protocol: Invasion Assays: Glioblastoma and microglial cells were labelled with cell tracker green CMFDA and with cell tracker red CMTPX, respectively, and then embedded in 50 μL of 10 mg/mL basement membrane extract (BME) (Trevigen). The mixture was then placed in a transwell insert (previously coated with 1 μg/mL fibronectin on the bottom side of the 8 μm filter to maintain adhesion of the cells that invaded through the filter) and allowed to polymerize for 30 min at 37° C. Subsequently, serum free medium was added to both wells. To maintain constant cell numbers, cells were plated at a density per invasion chamber of 15×10^4 GL261 cells and 5×10^4 microglia cells in MSFM. Semapimod or its diluent was added at varying concentrations into the BME and in the media above and below the transwell. Invasion chambers were incubated for 48 h and subsequently fixed in 3.7% formaldehyde in phosphate-buffered saline (PBS). The gel in the transwell inserts was carefully removed. Invaded glioblastoma cells were imaged with a Zeiss Axiovision inverted microscope and a 10× objective. All invaded cells were counted.
To determine the effect of microglia on the invasive properties of glioblastoma cells, a novel 3-dimensional microglia-glioblastoma co-culture assay was designed that provides a better approximation of the in vivo setting than a 2-dimensional configuration. […]

Assay [2] deals with GL261 cells. In words: serum-stimulated GL261 invasion (transwell, BME). Conditions: 10 μM; 10% FBS in bottom well, 48 h. The assay is classed as cell-based, murine. Here is the method:
FIG. 1A-1C. Semapimod inhibits microglia-stimulated glioblastoma invasion in vitro. (A) Semapimod inhibits microglia-stimulated glioblastoma cell invasion. GL261 cells were embedded in basement membrane extract (BME) with or without microglia in the presence of the indicated concentrations of semapimod, layered in the transwell and incubated for 48 h. The number of invading GL261 cells was determined. Data shown represent the average+/−SEM of 3 independent experiments, performed in duplicate. […] GL261 cells embedded in BME in the presence of the indicated concentration of semapimod, were layered in the transwell and incubated for 48 h. Serum (10% FBS) was added to the bottom well. The number of invading GL261 cells was determined. Data shown represent the average+/−SEM of 3 independent experiments. (C) Semapimod inhibits glioblastoma cell-stimulated microglia invasion. Glioblastoma cells were plated in the bottom well and microglia were embedded in BME in the presence or absence of 200 nM semapimod, layered in the transwell and incubated for 48 h. […]
Invasion Assays: Glioblastoma and microglial cells were labelled with cell tracker green CMFDA and with cell tracker red CMTPX, respectively, and then embedded in 50 μL of 10 mg/mL basement membrane extract (BME) (Trevigen). […] All invaded cells were counted.

In another assay the test system is microglia. Briefly: glioblastoma cell-stimulated microglia invasion (transwell). Conditions: GL261 in bottom well, microglia in BME, 48 h; read-out: IC50 for inhibition of GL261-stimulated microglia invasion. The assay is classed as cell-based, murine. Here is the method: To measure the invasion of microglia toward glioblastoma cells in vitro, a variant of the glioblastoma cell invasion assay was used. First, 15×10^4 G1261 cells were plated in MSFM medium overnight and subsequently were placed in serum free medium. Subsequently, 5×10^4 microglia cells were embedded in 50 μL, of 10 mg/mL BME with or without 200 nM semapimod, placed in a 8 μm transwell (previously coated with 1 μg/mL fibronectin on the bottom side of the 8 μm filter to maintain adhesion of the cells that invaded through the filter) and allowed to polymerize for 30 min at 37° C. The transwell chambers were then placed above the previously plated GL261. After 48 h of incubation, the chambers were fixed in 3.7% formaldehyde in PBS.
The cells were stained with 0.2% crystal violet in 2% ethanol. The remaining BME was carefully removed and the inserts were allowed to dry. Cells attached to the bottom of the filter were imaged as for the invasion assay and the total number of invaded microglia was determined.
Semapimod inhibits glioblastoma-induced microglia invasion in vitro: Microglia extensively infiltrate glial tumors (5-7). […] This stimulatory effect is abolished by semapimod, with an IC50 of approximately 60 nM.

Assay [3] deals with GL261 cells. Briefly: proliferation assay of GL261 co-cultured with microglia (SRB). The class given is cell-based, murine. Conditions: 200 nM, 3 days. Here is the method:
Proliferation Assay: 50,000 GL261 cells were cultured overnight in the absence or presence or microglia (50,000 or 150,000) in serum-containing medium and subsequently cultured in the presence or absence of 200 nM semapimod in a 6-well dish in serum-free conditions. Microglia were added in a ratio of 1:1 or 1:3 GL261:microglia. After 72 h of incubation, plates were washed in PBS and fixed in 3.7% formaldehyde in PBS. In initial experiments, the microglia were stained with tomato lectin for 45 mins and stained all nuclei with DAPI. Ten fluorescence micrographs of each culture were taken with a Zeiss Axiovert-based imaging system. […] Therefore in subsequent experiments the cells were stained with SRB as described for the colony formation assay. After drying, the plates were de-stained with 500 μL of 10 mM Tris base (Sigma). Eluted SRB was measured by absorbance at 490 nm.

The next assay has as its system SK-NEP1 human ES cells. In words: metastatic Ewing's Sarcoma mouse model (SK-NEP1 implanted into kidney). The assay is classed as in vivo, athymic mice. Here is the method: FIG. 8A-8B. CNI-1493 decreases primary tumor size and metastatic burden in a metastatic Ewing's Sarcoma mouse model. 10^6 SK-ENP1 cells were implanted into the kidneys of nude mice and intraperitoneal treatment with CNI-1493 (5 mg/kg/day) or vehicle was initiated one week later. After six weeks of treatment, mice were sacrificed and assessed for primary and metastatic tumor burden. […] Metastatic tumor burden was evaluated with hematoxylin and eosin stained tissue sections by microscopy and calculating surface area per tissue section per mouse using ImageJ software (B).
(§1) In vivo, human ES cells (SK-NEP1) were surgically implanted into the left kidney of athymic mice. Mice were treated for 7 weeks with CNI-1493 or vehicle. Lung parenchyma was assessed for metastases utilizing both H&E and immunohistochemistry for the ES-specific CD99 and endothelial-specific CD31 markers. In vitro, primary macrophages isolated from human blood were polarized to M1 or M2 phenotypes by exposure to GM-CSF or M-CSF and activated with IFN-γ and LPS or IL-4. Cells were co-cultured with polarized macrophages and underwent proliferation and invasion assays in the presence or absence of CNI-1493.

Another assay deals with ES cells (SK-NEP1). In words: proliferation assay of ES cells co-cultured with polarized macrophages. The class given is cell-based, human. The settings on record: co-culture with polarized macrophages. Here is the method: as §1

The IC50 is the concentration needed to halve the response being measured. With `C/C(=N\NC(=N)N)c1cc(NC(=O)CCCCCCCCC(=O)Nc2cc(/C(C)=N/NC(=N)N)cc(/C(C)=N/NC(=N)N)c2)cc(/C(C)=N/NC(=N)N)c1` [semapimod], the concentration for half-maximal inhibition (IC50) in assay [1] was under 50 nM; with microglia it was about 60 nM. Besides, the “effect on serum-stimulated GL261 invasion” value in the assay on GL261 cells [2] was “does not affect”. Moreover, the “effect on microglia-stimulated glioblastoma cell proliferation” value with GL261 cells [3] is recorded as “does not affect”. Moreover, the “primary tumor size (effect in words)” value with SK-NEP1 human ES cells (intraperitoneal 5 mg/kg/day) is listed as “significantly reduce”. Further, the “incidence of metastatic disease” value in the assay on SK-NEP1 human ES cells (intraperitoneal 5 mg/kg/day, p=0.055) amounted to 21%. Besides, the “lung metastases by immunohistochemistry” value with SK-NEP1 human ES cells (lung tissue, CD99/CD31) was “micrometastases confined to the vasculature”. Moreover, in the assay on SK-NEP1 human ES cells (treated 7 weeks, versus vehicle, p<0.05), the “overall metastatic tumor burden” value is “significantly decreased”. For the same molecule, the primary tumor size in the assay on SK-NEP1 human ES cells (treated 7 weeks, control 7.0±5.2 g, p=0.54, not affected) was found to be 5.7 ± 3.3 g. In addition, the “effect on ES cellular proliferation” value in the assay on ES cells (SK-NEP1) was “unaffected”.
